Data set [1] deals with SJL/J mouse model of chronic progressive EAE. The data set is described as follows: SJL/J mouse model of chronic progressive EAE. It counts as in vivo. The protocol:
A.1 In Vivo: SJL/J Mouse Model of Chronic Progressive EAE
The disease course in this animal model shares some common features with SP- and PR-MS. Immunization: On day 0 female SJL/J mice are immunized (subcutaneous flank injection) with 200 μl inoculum containing 500 μg bovine myelin basic protein (MBP) emulsified in complete Freund's adjuvant (CFA). On day 9 mice are boosted by a second MBP injection and an additional intravenous adjuvant injection consisting of 200 ng B. pertussis toxin. A final Pertussis injection is given on day 11. […] This is followed by a recovery phase starting around day 25, during which time mice remain symptom-free for about 20 days. Subsequently, by days 45-47, approximately 50% of the animals go into the progressive phase of the disease. Therefore, therapeutic treatment with test compounds starts on day 21 when the disease is fully established and continues until day 70, unless stated otherwise. Recombinant mouse interferon β (INFβ Calbiochem/Biosciences) is dissolved in saline and given by intraperitoneal injection 3× per week. Compound (a), e.g. Compound A or B, is diluted in water and given p.o. 5× per week by gavage. Mice in the vehicle control group are MBP-immunized and treated with water.
Each experimental group consists of 10 mice, which are examined daily for clinical EAE symptoms. Disease incidence and the day of EAE onset also are recorded. Clinical grades of EAE are assessed using a scale from 0 to 3. Any disease-related mortality which occurs after starting drug treatment is recorded with a maximum score of 3.

In the next data set the test system is Lewis rat model of EAE. The data set is described as follows: Lewis rat model of EAE, prophylactic treatment regimen. The data set is classed as in vivo. The settings on record: combination with a mTOR inhibiter at similar doses, EAE induced by intradermal guinea pig neuroantigen.
The test system of data set [2] is DA rat model of chronic-protracted EAE. The data set is described as follows: Optic neuritis in the DA rat model of chronic-protracted EAE. It counts as in vivo. The note with it: for disease progression (clinical EAE): 0.3 mg/kg p.o. once a day for 2 weeks, therapeutic treatment from about day 12, compared to vehicle-treated controls; for development of EAE symptoms / disease-related weight loss: suboptimal dose <0.1 mg/kg p.o. combined with a mTOR inhibitor (<1 mg/kg p.o.), therapeutic dosing. An excerpt: A.2 In Vivo: Optic Neuritis in the DA Rat Model of Chronic-Protracted EAE
Ocular pathologic manifestations such as optic neuritis (neuromyelitis optica) are frequent in multiple sclerosis and often precede or accompany plaque formation in the brain white matter. Ocular areas, especially the optic chiasma, also are important targets in demyelinating forms of EAE. In such EAE models, functional disability caused by demyelination of the optic nerve can be assessed by electrophysiological methods, such as visual evoked cortical potentials and electroretinogram, in conjunction with morphological analysis of the ocular tissue.
Immunization: On day 0, female DA rats are immunized by a single intradermal injection at the tail base with 100-200 μl inoculum containing a recombinant encephalitogenic peptide, e.g. myelin oligodendrocyte glycoprotein, or a homogenate of syngeneic central nervous system tissue emulsified in one part CFA (volume:volume). Neurologic symptoms develop by 10 days post-immunization, and clinical grades of EAE are assessed using a scale of 0 to 4. Therapeutic treatment with the test compound starts when the disease is fully established, usually on day 12, and continues for 2 weeks.

Data set [3] can be described thus: Acute toxicity (LD50) in rats. The settings on record: rat, in vivo, po.
Data set [4] can be described thus: Acute toxicity (LD50) in monkeys. The note with it: monkey, in vivo, po.
Where [5] appears, read: 0.6 mg/kg p.o. 5x per week in combination with INFβ (10 000 IU i.p. 3x per week), therapeutic treatment from day 21, days 45-75, compared to vehicle-treated controls.

Bounds are passed on as bounds.

In the case of `NC(CO)(CO)CCc1ccc(C(=O)CCCCc2ccccc2)cc1` [Compound B, 2-amino-2-{2-[4-(1-oxo-5-phenylpentyl)phenyl]ethyl}propane-1,3-diol], the “disease progression (clinical EAE)” value in data set [1] (setting [5]) is “prevents disease progression for one month”. Also, the disease onset result in the data set on Lewis rat model of EAE is recorded as “prevent disease onset”. For the same molecule, in data set [2], the “disease progression (clinical EAE)” value is listed as “prevents disease progression for at least 2 months”, the “development of EAE symptoms” value is on record as “curtail development of EAE symptoms” and the disease-related weight loss entry was “prevent disease-related weight loss”.

Take `CCCCCCCCc1ccc(CCC(N)(CO)CO)cc1.Cl` [Compound A, 2-amino-2-[2-(4-octylphenyl)ethyl]propane-1,3-diol]: the median lethal dose (LD50) in data set [3] is over 10 mg/kg. In addition, in data set [1] (setting [5]), the “disease progression (clinical EAE)” value was “prevents disease progression for one month”. In addition, in the data set on Lewis rat model of EAE, the disease onset entry is “prevent disease onset”. Further, in data set [2], the “disease progression (clinical EAE)” value is “prevents disease progression for at least 2 months”, the “development of EAE symptoms” value is recorded as “curtail development of EAE symptoms” and the disease-related weight loss result is on record as “prevent disease-related weight loss”. In data set [4], this molecule showed an LD50 of over 10 mg/kg.

B1: INFβ: Recombinant mouse interferon β (Calbiochem/Biosciences), dissolved in saline, given by intraperitoneal injection (protein, UniProt P01575 22-182, looked up)
Interferon beta: INYKQLQLQERTNIRKCQELLEQLNGKINLTYRADFKIPMEMTEKMQKSYTAFAIQEMLQNVFLVFRNNFSSTGWNETIVVRLLDELHQQTVFLKTVLEEKQEERLTWEMSSTALHLKSYYWRVQRYLKLMKYNSYAWMVVRAEIFRNFLIIRRLTRNFQN
Take B1: the “disease progression (clinical EAE)” value in data set [1] (INFβ alone, 10 000 IU 3x/week i.p., afterwards full EAE response indistinguishable from vehicle-treated controls by day 68 onwards) is “only marginally inhibits disease progression for about 1 week”.
